Results on 14 compounds are retold here after ChEMBL document CHEMBL1148213, “Diterpenoids from Isodon melissoides” (J Nat Prod, 2004).

Each structure is given as a SMILES string. In brackets after ≈: the same amount, converted by molar mass.

Broadly, the IC50 is the concentration that inhibits the measured activity by half. Low readings indicate inhibition by little substance, high ones a need for much substance.

The assay deals with BGC-823. The assay is described as follows: Cytotoxicity against human BGC823 cells. It is filed as functional, cell-based.

In the case of `C=C1[C@@H]2C[C@H](O)[C@@H]3[C@](C2)(C[C@H](OC(C)=O)[C@@H]2C(C)(C)[C@@H](OC(C)=O)C[C@H](O)[C@]23C)[C@@H]1O`, the Activity entry is “Not toxic”.
Take `C=C1[C@@H]2C[C@H](O)[C@@H]3[C@](C2)(C[C@H](OC(C)=O)[C@@H]2C(C)(C)[C@@H](OC(C)=O)C[C@H](OC(C)=O)[C@]23C)[C@@H]1O`: the Activity result was “Not toxic”.
On to `C=C1[C@@H]2C[C@H](O)[C@H]3[C@]4(C)CC[C@H](O)C(C)(C)[C@H]4[C@@H](OC(C)=O)C[C@]3(C2)[C@@H]1O`, for which the Activity result was “Not toxic”.
As for `C=C1[C@@H]2C[C@H](O)[C@H]3[C@]4(C)CC[C@H](O)C(C)(C)[C@H]4[C@@H](OC(C)=O)[C@H](O)[C@]3(C2)[C@@H]1O`, the Activity entry is “Not toxic”.
The same measure, in the same setting: the entry for `C=C1[C@@H]2C[C@H](O)[C@H]3[C@]4(C)CC[C@H](O)C(C)(C)[C@H]4[C@@H](OC(C)=O)[C@H](OC(C)=O)[C@]3(C2)[C@@H]1O` is “Not toxic”.
In the case of `C=C1[C@@H]2C[C@H](O)[C@H]3[C@]4(C)CC[C@H](OC(C)=O)C(C)(C)[C@H]4[C@@H](OC(C)=O)C[C@]3(C2)[C@@H]1O`, the Activity entry was “Not toxic”.
On to `C=C1[C@@H]2C[C@H](O)[C@H]3[C@]4(C)CC[C@H](OC(C)=O)C(C)(C)[C@H]4[C@@H](OC(C)=O)[C@H](OC(C)=O)[C@]3(C2)[C@@H]1O`, for which the Activity result was “Not toxic”.
`C=C1C(=O)[C@]23C[C@H]1C[C@H](O)[C@H]2[C@]1(C)CC[C@H](OC(C)=O)C(C)(C)[C@H]1[C@@H](OC(C)=O)[C@@H]3OC(C)=O` [DAWOENSIN A] registered a concentration for half-maximal inhibition (IC50) of 3.54 µg/mL (≈ 7.43 µM).
For the compound `C=C1C(=O)[C@]23C[C@H]1C[C@H](O)[C@H]2[C@]1(C)CC[C@H](OC(C)=O)C(C)(C)[C@H]1[C@@H](OC(C)=O)[C@@H]3O` [MELISSOIDESIN G], the IC50 was 6.62 µg/mL (≈ 15.2 µM).
The compound `C=C1C(=O)[C@]23C[C@H]1C[C@H](O)[C@H]2[C@]1(C)CC[C@H](O)C(C)(C)[C@H]1[C@@H](OC(C)=O)C3` [MELISSOIDESIN N] yielded an IC50 of 0.036 µg/mL (≈ 0.0956 µM).
On the same count and under the same terms, next, `C=C1C(=O)[C@]23C[C@H]1C[C@H](O)[C@H]2[C@]1(C)CC[C@H](OC(C)=O)C(C)(C)[C@H]1[C@@H](OC(C)=O)C3` [MELISSOIDESIN O]: 7.83 µg/mL (≈ 18.7 µM); `C=C1C(=O)[C@]23C[C@H]1C[C@H](O)[C@H]2[C@@]1(C)[C@H]([C@@H](OC(C)=O)C3)C(C)(C)[C@@H](OC(C)=O)C[C@@H]1O` [MELISSOIDESIN S]: 7.71 µg/mL (≈ 17.7 µM); `CC[C@]1(O)C[C@H]2CN(CCc3c([nH]c4ccccc34)[C@@](C(=O)OC)(c3cc4c(cc3OC)N(C=O)[C@H]3[C@@](O)(C(=O)OC)[C@H](OC(C)=O)[C@]5(CC)C=CCN6CC[C@]43[C@@H]65)C2)C1` [VINCRISTINE]: 0.066 µg/mL (≈ 0.08 µM).
Same read-out and setting: the figure for `C=C1C(=O)[C@]23C[C@H]1C[C@H](O)[C@H]2[C@]1(C)CC[C@H](O)C(C)(C)[C@H]1[C@@H](OC(C)=O)[C@@H]3O` [XINDONGNIN B] is 9.45 µg/mL (≈ 24.1 µM).
